Work on `CN1CCN(c2cc(F)cc3c(=O)cc(C(=O)Nc4ccc(N5CCN(C(=O)CCO)CC5)cc4)oc23)CC1` yielded a melting point of 195 to 199 °C.
In the case of `O=C1CC=Cc2ncncc21`, the melting point is reported as 211 to 212 °C.
`CCCCCCCCCCCCNCC(O)CO` (stereo not given) gave a melting point of 75 to 76 °C.
`CC(C)(C)OC(=O)NCc1ccccc1-c1ccccc1C(=O)O` gave a melting point of 136 °C.
For `N=C(N)NCCCOc1cccc2c1NC(=O)C(CC(=O)O)C2` (stereo not given), the melting point was 151 to 155 °C.
`COc1ccc(NC(=O)c2ccc(C(C)(C)C)cc2)c([N+](=O)[O-])c1` showed a melting point of 103 to 107 °C.
For `CCCCCCCCCCCCS(=O)(=O)N1CCCSC1=C(Cl)[N+](=O)[O-]`, the melting point was 76 to 77 °C.
In the case of `COc1ccc(S(=O)(=O)N2C(=O)C(N)(c3ccccc3)c3cc(Cl)ccc32)c(OC)c1` (stereo not given), the melting point is reported as 108 to 110 °C.
Compound `COc1cccc(CC2SCCCS2)c1` has a melting point of 54 to 56 °C.
In the case of `COc1ccc(C2CCN(c3c(C)c(C)c4c(c3C)C(O)(c3ccc(F)cc3)C(C)(C)O4)CC2)cc1OC` (stereo not given), the melting point is reported as 150 to 152 °C.
`COc1ccc(COC(=O)[C@@H]2C[C@@H](O)CN2C(=O)OCc2ccc([N+](=O)[O-])cc2)cc1` showed a melting point of 83 to 85 °C.
`CC(=O)Nc1ccc(S(=O)(=O)O)c(NCC(=O)O)c1` showed a melting point of 234 to 235 °C.
For `O=C1C2CCCN2C(=O)N1c1ccc([N+](=O)[O-])c2ccccc12` (stereo not given), the melting point was 215 to 217 °C.
`CNc1nc(-c2ccc(SC)cc2)nc(SC)c1C(=O)Nc1ccc(C)cc1` gave a melting point of 228 to 230 °C.
`OCc1cnc(-c2ccc(OC(F)(F)F)cc2)nc1` gave a melting point of 84 to 85 °C.
For `O=c1c2cc(F)c(N3CCCC3)cc2n(CC2CC2)c(=O)n1OCc1ccccc1`, the melting point was 198 to 200 °C.
Work on `O=C(Nc1ccc2nc(S)[nH]c2c1)C(=O)N1CCC(Cc2ccc(F)cc2)CC1` yielded a melting point of 286 to 288 °C.
In the case of `Nc1ccccc1C(=O)c1ccc(Cl)cc1`, the melting point is reported as 100 to 102 °C.
Work on `CC(C)(C)OC(=O)N1C2CCC1C(=O)C2` (stereo not given) yielded a melting point of 60 to 62 °C.
In the case of `CN1Cc2cccnc2N(c2cccc(C(F)(F)F)c2)C1=O`, the melting point is reported as 122 to 124 °C.
Work on `CCOC(=O)Cn1c(=O)[nH]c2ccc(C(=O)c3c(-c4ccccc4)c(OC)c4ccccn34)cc2c1=O` yielded a melting point of 221 °C.
With `C=C(C)C(=O)NC1(C(=O)O)CCCCC1` the melting point was 176 to 178 °C.
For `CCOC(=O)C1=C(C)Nc2nc(N(C)C)nc(N(C)C)c2C1c1cccc([N+](=O)[O-])c1` (stereo not given), the melting point was 149 °C.
In the case of `CC(C)(C)OC(=O)C(CCC(N)=O)N1Cc2c(O)cccc2C1=O` (stereo not given), the melting point is reported as 198 to 200 °C.
Work on `O=c1c(CCCc2nc3ccccc3s2)cc2cccnc2n1-c1cccc([N+](=O)[O-])c1` yielded a melting point of 185 to 186 °C.
`O=C(c1ccc(O)cc1)c1ccc2cc(C(=O)c3ccc(O)cc3)ccc2c1` showed a melting point of 307 °C.
In the case of `COC(=O)c1cc2cnc(SC)nc2n(Cc2ccc(OC)c(Cl)c2)c1=O`, the melting point is reported as 191 to 193 °C.
With `CON1CC(c2ccc(OCc3ccccc3)cc2)CC1=O` (stereo not given) the melting point was 92 to 97 °C.
With `CN(CCc1[nH]c2ccccc2c1-c1ccccc1)C(=O)CCl` the melting point was 135 to 138 °C.
Work on `O=C(O)c1ccc(-c2nc(-c3ccccc3)ccc2Cl)cc1` yielded a melting point of 254 to 255 °C.
Compound `CN(C)c1ccc(NC(=O)N(C)c2cccc(-c3ccc(CC4SC(=O)NC4=O)cc3)c2)cc1` (stereo not given) has a melting point of 102 °C.
For `CCOP(=S)(OCC)Oc1nsc(SCc2ccccc2)n1`, the melting point was under 50 °C.
Work on `CN1CCN(c2c(F)cc3c(=O)c(C(=O)O)cn(C4CC4)c3c2C#N)CC1` yielded a melting point of 264 to 265 °C.
In the case of `CCNc1cccc2c(S(=O)(=O)Nc3ncc(Br)nc3OC)cccc12`, the melting point is reported as 216 to 218 °C.
In the case of `N#CCC1OC(n2cnc3c(NN4CCC(Sc5ccccc5)CC4)nc(Cl)nc32)C(O)C1O` (stereo not given), the melting point is reported as 159 to 161 °C.
For `CCc1c(C(=O)C(N)=O)c2c(N)cccc2n1Cc1ccccc1`, the melting point was 140 to 144 °C.
With `O=C(Nc1ccccc1)C1CCc2c(cnc3[nH]ncc23)C1` (stereo not given) the melting point was over 300 °C.
For `COC(=O)/C=C\c1cnn(C)c1-c1ccc(F)cc1`, the melting point was 108 to 109 °C.
Compound `CCOC(=O)c1cn(-c2ccc(OC)cc2)c2cc(F)c(F)cc2c1=O` has a melting point of 212 to 214 °C.
Work on `CCOc1cc([N+](=O)[O-])c(C)c(C)c1[N+](=O)[O-]` yielded a melting point of 64 to 66 °C.
Work on `NNC(=O)c1ccc(OCc2ccccc2)c(Cl)c1` yielded a melting point of 168 to 171 °C.
`CCCSC(Cn1ccnc1)(SCCC)c1ccc2ccccc2c1` gave a melting point of 188 to 190 °C.
In the case of `CC(=NOC(C)(C)C)c1cnc(NC(=O)[C@H](CC2CCCC2)c2ccc(S(C)(=O)=O)cc2)cn1`, the melting point is reported as 81 to 83 °C.
Compound `CCC(=O)Oc1cc(OC)cc(OC)c1C(=O)C=Cc1cccs1` has a melting point of 127 °C.
For `CCc1c(C(=O)OC(C)C)ncc2[nH]c3ccc4nc(C)cnc4c3c12`, the melting point was 236 to 238 °C.
For `O=Cc1ccc(-c2ccc(Br)cc2)nc1`, the melting point was 108 to 109 °C.
Work on `O=C(c1ccc(-n2cccn2)nc1Cl)N1Cc2cccn2Cc2ccccc21` yielded a melting point of 133 to 135 °C.
For `CO[C@@H]1c2ccn3c(C)c(C)nc3c2N[C@H](c2ccccc2)[C@H]1OC(=O)c1ccccc1`, the melting point was 92 to 93 °C.
With `O=C(CC1CCN(CCCn2c(=O)[nH]c3ccccc32)CC1)c1cccc(Cl)c1` the melting point was 160 °C.
`Clc1ccc(-c2ncc(C#Cc3ccccc3)s2)cc1` showed a melting point of 108 to 110 °C.
